Reference: US20110105515A1, “TARGETING THE ONCOPROTEIN NUCLEOPHOSMIN” (President and Fellows of Harvard College, priority 2007, published 2011)

Columns and labels:
RPMI-8226 = RPMI-8226 (Leukemia), 48 hours, SRB
A549/ATCC = A549/ATCC (Non-Small Cell Lung Cancer), 48 hours, SRB
EKVX = EKVX (Non-Small Cell Lung Cancer), 48 hours, SRB
HOP-62 = HOP-62 (Non-Small Cell Lung Cancer), 48 hours, SRB
NCI-H23 = NCI-H23 (Non-Small Cell Lung Cancer), 48 hours, SRB
NCI-H460 = NCI-H460 (Non-Small Cell Lung Cancer), 48 hours, SRB
COLO 205 = COLO 205 (Colon Cancer), 48 hours, SRB
HCT-116 = HCT-116 (Colon Cancer), 48 hours, SRB
HCT-15 = HCT-15 (Colon Cancer), 48 hours, SRB
HT29 = HT29 (Colon Cancer), 48 hours, SRB
KM12 = KM12 (Colon Cancer), 48 hours, SRB
SW-620 = SW-620 (Colon Cancer), 48 hours, SRB
SF-268 = SF-268 (CNS Cancer), 48 hours, SRB
SF-295 = SF-295 (CNS Cancer), 48 hours, SRB
SNB-19 = SNB-19 (CNS Cancer), 48 hours, SRB
SNB-75 = SNB-75 (CNS Cancer), 48 hours, SRB
LOX IMVI = LOX IMVI (Melanoma), 48 hours, SRB
MALME-3M = MALME-3M (Melanoma), 48 hours, SRB
SK-MEL-2 = SK-MEL-2 (Melanoma), 48 hours, SRB
SK-MEL-28 = SK-MEL-28 (Melanoma), 48 hours, SRB
UACC62 = UACC62 (Melanoma), 48 hours, SRB
IGROV1 = IGROV1 (Ovarian Cancer), 48 hours, SRB
OVCAR-3 = OVCAR-3 (Ovarian Cancer), 48 hours, SRB
OVCAR-5 = OVCAR-5 (Ovarian Cancer), 48 hours, SRB
786-0 = 786-0 (Renal Cancer), 48 hours, SRB
A498 = A498 (Renal Cancer), 48 hours, SRB
DU-145 = DU-145 (Prostate Cancer), 48 hours, SRB
MDA-MB-231/ATCC = MDA-MB-231/ATCC (Breast Cancer), 48 hours, SRB
HS578T = HS578T (Breast Cancer), 48 hours, SRB
MDA-MB-435 = MDA-MB-435 (Breast Cancer), 48 hours, SRB

CC1(C)C=Cc2c(ccc3c4c(n(O)c23)C(C)(C)C2CC35CCCN3C(=O)C2(NC5=O)C4SCC(NC(=O)CCC(N)C(=O)O)C(=O)NCC(=O)O)O1 (centres unmarked) [Glutathione Adduct]
CC50 (HL-60(TB)): 13.3 µM | GI50 (HL-60(TB)): 0.321 µM | TGI (HL-60(TB)): 1.62 µM | GI50 (RPMI-8226): 0.159 µM | TGI (RPMI-8226): 1.14 µM | CC50 (RPMI-8226; read-out: LC50): > 50 µM | GI50 (A549/ATCC): 1.37 µM | TGI (A549/ATCC): 3.94 µM | CC50 (A549/ATCC; read-out: LC50): 15.8 µM | GI50 (EKVX): 1.11 µM | TGI (EKVX): 5.4 µM | CC50 (EKVX; read-out: LC50): 18.9 µM | GI50 (HOP-62): 6.67 µM | TGI (HOP-62): 1.38 µM | CC50 (HOP-62; read-out: LC50): 28.6 µM | GI50 (NCI-H23): 1.09 µM | TGI (NCI-H23): 3.07 µM | CC50 (NCI-H23; read-out: LC50): 14.9 µM | GI50 (NCI-H460): 1.11 µM | TGI (NCI-H460): 2.41 µM | CC50 (NCI-H460; read-out: LC50): 23.2 µM | GI50 (COLO 205): 0.649 µM | TGI (COLO 205): 15.1 µM | CC50 (COLO 205; read-out: LC50): 3.51 µM | GI50 (HCT-116): 0.871 µM | TGI (HCT-116): 1.76 µM | CC50 (HCT-116; read-out: LC50): 3.55 µM | GI50 (HCT-15): 0.84 µM | TGI (HCT-15): 2.04 µM | CC50 (HCT-15; read-out: LC50): 4.93 µM | GI50 (HT29): 0.9 µM | TGI (HT29): 2.01 µM | CC50 (HT29; read-out: LC50): 4.51 µM | GI50 (KM12): 0.979 µM | TGI (KM12): 1.91 µM | CC50 (KM12; read-out: LC50): 3.73 µM | GI50 (SW-620): 0.713 µM | TGI (SW-620): 1.5 µM | CC50 (SW-620; read-out: LC50): 3.81 µM | GI50 (SF-268): 1.13 µM | TGI (SF-268): 2.88 µM | CC50 (SF-268; read-out: LC50): 10.9 µM | GI50 (SF-295): 1.45 µM | TGI (SF-295): 6.58 µM | CC50 (SF-295; read-out: LC50): 24.4 µM | GI50 (SNB-19): 1.43 µM | TGI (SNB-19): 6.24 µM | CC50 (SNB-19; read-out: LC50): 18.7 µM | GI50 (SNB-75): 0.896 µM | TGI (SNB-75): 2.45 µM | CC50 (SNB-75; read-out: LC50): 8.47 µM | GI50 (LOX IMVI): 0.806 µM | TGI (LOX IMVI): 1.56 µM | GI50 (MALME-3M): 0.419 µM | TGI (MALME-3M): 3.1 µM | CC50 (MALME-3M; read-out: LC50): 25.1 µM | GI50 (SK-MEL-2): 0.877 µM | TGI (SK-MEL-2): 2.44 µM | CC50 (SK-MEL-2; read-out: LC50): 10.9 µM | GI50 (SK-MEL-28): 0.985 µM | TGI (SK-MEL-28): 1.95 µM | CC50 (SK-MEL-28; read-out: LC50): 3.87 µM | GI50 (UACC62): 0.649 µM | TGI (UACC62): 1.72 µM | CC50 (UACC62; read-out: LC50): 4.56 µM | GI50 (IGROV1): 1.06 µM | TGI (IGROV1): 2.81 µM | CC50 (IGROV1; read-out: LC50): 11.9 µM | GI50 (OVCAR-3): 0.735 µM | TGI (OVCAR-3): 1.52 µM | CC50 (OVCAR-3; read-out: LC50): 3.13 µM | GI50 (OVCAR-5): 0.971 µM | TGI (OVCAR-5): 3.03 µM | CC50 (OVCAR-5; read-out: LC50): 12 µM | GI50 (786-0): 1.12 µM | TGI (786-0): 2.44 µM | CC50 (786-0; read-out: LC50): 6.03 µM | GI50 (A498): 0.804 µM | TGI (A498): 1.83 µM | CC50 (A498; read-out: LC50): 4.16 µM | GI50 (DU-145): 1.16 µM | TGI (DU-145): 2.65 µM | CC50 (DU-145; read-out: LC50): 7.88 µM | GI50 (MDA-MB-231/ATCC): 0.931 µM | TGI (MDA-MB-231/ATCC): 3.68 µM | CC50 (MDA-MB-231/ATCC; read-out: LC50): 14.7 µM | GI50 (HS578T): 1.11 µM | TGI (HS578T): 3.79 µM | CC50 (HS578T; read-out: LC50): > 50 µM | GI50 (MDA-MB-435): 1.1 µM | TGI (MDA-MB-435): 5.2 µM | CC50 (MDA-MB-435; read-out: LC50): 22 µM
